From ChEMBL document CHEMBL5331051, “Cationic, amphipathic small molecules based on a triazine-piperazine-triazine scaffold as a new class of antimicrobial agents” (Eur J Med Chem, 2022)
≈ marks a conversion by molar mass, not a printed value. Calls of active or inactive are those of the source. The calls are words filed in the database; no cut-off is given here.

Assays:
Pseudomonas aeruginosa [1] = assay: Antibacterial activity against Pseudomonas aeruginosa KCTC 1637 strain assessed as bacterial growth inhibition measured at 18 to 24 hrs by microdilution assay; format: functional; conditions: time 18-24 hrs
Lipopolysaccharide (LPS) [2] = assay: Binding affinity to Escherichia coli O111:B4 lipopolysaccharide assessed as suppression of FTIC labeled LPS binding to mouse RAW264.7 cells at 20 ug/ml pretreated LPS with cells for 1 hr followed by compound addition measured after 1 hr by flow cytometer assay (reference value: 48.12%); format: cell-based; conditions: dose 20.0 µg/ml
Staphylococcus aureus [3] = assay: Antibacterial activity against Staphylococcus aureus KCTC 1621 strain assessed as bacterial growth inhibition measured at 18 to 24 hrs in presence of 4 uM FeCl3 by microdilution assay; format: functional; conditions: time 18-24 hrs
[4] = system: Staphylococcus epidermidis; assay: Antibacterial activity against Staphylococcus epidermidis KCTC 1917 strain assessed as bacterial growth inhibition measured at 18 to 24 hrs by microdilution assay; format: functional; conditions: time 18-24 hrs
Staphylococcus aureus [5] = assay: Antibacterial activity against Staphylococcus aureus KCTC 1621 strain assessed as bacterial growth inhibition measured at 18 to 24 hrs in presence of 20% human serum by microdilution assay; format: functional; conditions: time 18-24 hrs
Lipopolysaccharide (LPS) [6] = assay: Displacement of BODIPY-TR-cadaverine from Escherichia coli O111:B4 lipopolysaccharide assessed as increase in fluorescence at 5 ug/ml by fluorescence based assay relative to control; conditions: dose 5.0 µg/ml
Cell membrane [7] = assay: Induction of cell membrane depolarization in Staphylococcus aureus assessed as fluorescence intensity at 2 to 16 times MIC by DiSC3(5) dye based fluorescence assay; format: subcellular
Escherichia coli [8] = assay: Antibacterial activity against Escherichia coli KCTC 1682 strain assessed as bacterial growth inhibition measured at 18 to 24 hrs in presence of 2.5 mM CaCl2 by microdilution assay; format: functional; conditions: time 18-24 hrs
Cell membrane [9] = assay: Induction of cell membrane damage in Escherichia coli KCTC 1682 assessed as increase in fluorescent intensity at 2 times MIC incubated for 30 mins by PI staining based flow cytometry assay (reference value: 9.79 %); format: subcellular
Staphylococcus aureus [10] = assay: Antibacterial activity against methicillin-resistant Staphylococcus aureus CCARM 3089 strain assessed as bacterial growth inhibition by checkerboard assay; format: functional
RAW264.7 [11] = assay: Antiinflammatory activity in LPS-induced mouse RAW264.7 cells assessed as reduction in NO production at 5 ug/ml measured after 72 hrs by ELISA assay relative to control; format: functional
RAW264.7 [12] = assay: Antiinflammatory activity in LPS-induced mouse RAW264.7 cells assessed as reduction in TNF alpha level at 20 ug/ml measured after 72 hrs by ELISA assay relative to control; format: functional
Pseudomonas aeruginosa [13] = assay: Antibacterial activity against multidrug-resistant Pseudomonas aeruginosa CCARM 2109 strain assessed as bacterial growth inhibition measured at 18 to 24 hrs by microdilution assay; format: functional; conditions: time 18-24 hrs
RAW264.7 [14] = assay: Antiinflammatory activity in LPS-induced mouse RAW264.7 cells assessed as reduction in iNOS mRNA expression level at 5 ug/ml measured after 18 hrs by RT-PCR assay relative to control; format: functional, cell-based; conditions: dose 5.0 µg/ml
Pseudomonas aeruginosa [15] = assay: Antibacterial activity against multidrug-resistant Pseudomonas aeruginosa CCARM 2095 strain assessed as bacterial growth inhibition measured at 18 to 24 hrs by microdilution assay; format: functional; conditions: time 18-24 hrs
Escherichia coli [16] = assay: Antibacterial activity against Escherichia coli KCTC 1682 strain assessed as bacterial growth inhibition measured after 6 hrs in presence of trypsin by radial diffusion assay; format: functional, organism-based
Escherichia coli [17] = assay: Antibacterial activity against Escherichia coli KCTC 1682 strain assessed as bacterial growth inhibition measured at 18 to 24 hrs by microdilution assay; format: functional; conditions: time 18-24 hrs
Staphylococcus aureus [18] = assay: Antibacterial activity against Staphylococcus aureus KCTC 1621 strain assessed as bacterial growth inhibition measured at 18 to 24 hrs in presence of 1 mM MgCl2 by microdilution assay; format: functional; conditions: time 18-24 hrs
Enterococcus faecium = assay: Antibacterial activity against vancomycin-resistant Enterococcus faecium ATCC 51559 strain assessed as bacterial growth inhibition measured at 18 to 24 hrs by microdilution assay; format: functional; conditions: time 18-24 hrs
Escherichia coli [19] = assay: Antibacterial activity against Escherichia coli KCTC 1682 strain assessed as bacterial growth inhibition measured after 6 hrs in presence of chymotrypsin by radial diffusion assay; format: functional, organism-based
Staphylococcus aureus [20] = assay: Additive antibacterial activity against multidrug-resistant Staphylococcus aureus CCARM 3089 strain assessed as ciprofloxacin fractional inhibitory concentration by checkerboard assay; format: functional
Pseudomonas aeruginosa [21] = assay: Synergistic antibacterial activity against multidrug-resistant Pseudomonas aeruginosa CCARM 2095 strain assessed as ciprofloxacin MIC by checkerboard assay; format: functional
Pseudomonas aeruginosa [22] = assay: Antibiofilm activity against multidrug-resistant Pseudomonas aeruginosa assessed as biofilm eradication; format: functional
Pseudomonas aeruginosa [23] = assay: Synergistic antibacterial activity against multidrug-resistant Pseudomonas aeruginosa CCARM 2095 strain assessed as fractional inhibitory concentration index in presence of oxacillin by checkerboard assay; format: functional
Staphylococcus aureus [24] = assay: Synergistic antibacterial activity against multidrug-resistant Staphylococcus aureus CCARM 3089 strain assessed as fractional inhibitory concentration index in presence of oxacillin by checkerboard assay; format: functional
Staphylococcus aureus [25] = assay: Synergistic antibacterial activity against multidrug-resistant Staphylococcus aureus CCARM 3089 strain assessed as fractional inhibitory concentration index in presence of ciprofloxacin by checkerboard assay; format: functional
Pseudomonas aeruginosa [26] = assay: Synergistic antibacterial activity against multidrug-resistant Pseudomonas aeruginosa CCARM 2095 strain assessed as ciprofloxacin fractional inhibitory concentration in presence of ciprofloxacin by checkerboard assay; format: functional
Pseudomonas aeruginosa [27] = assay: Synergistic antibacterial activity against multidrug-resistant Pseudomonas aeruginosa CCARM 2095 strain assessed as chloramphenicol fractional inhibitory concentration in presence of chloramphenicol by checkerboard assay; format: functional
Staphylococcus aureus [28] = assay: Synergistic antibacterial activity against methicillin-resistant Staphylococcus aureus CCARM 3089 strain assessed as ciprofloxacin MIC by checkerboard assay; format: functional
Staphylococcus aureus [29] = assay: Synergistic antibacterial activity against methicillin-resistant Staphylococcus aureus CCARM 3089 strain assessed as bacterial growth inhibition in presence of oxacillin by checkerboard assay; format: functional
Pseudomonas aeruginosa [30] = assay: Antibiofilm activity against multidrug-resistant Pseudomonas aeruginosa assessed as inhibition of biofilm formation; format: functional
Pseudomonas aeruginosa [31] = assay: Synergistic antibacterial activity against multidrug-resistant Pseudomonas aeruginosa CCARM 2095 strain assessed as bacterial growth inhibition in presence of chloramphenicol by checkerboard assay; format: functional
Staphylococcus aureus [32] = assay: Synergistic antibacterial activity against methicillin-resistant Staphylococcus aureus CCARM 3089 strain assessed as bacterial growth inhibition in presence of ciprofloxacin by checkerboard assay; format: functional
Pseudomonas aeruginosa [33] = assay: Synergistic antibacterial activity against multidrug-resistant Pseudomonas aeruginosa CCARM 2095 strain assessed as bacterial growth inhibition by checkerboard assay; format: functional
Staphylococcus aureus [34] = assay: Synergistic antibacterial activity against methicillin-resistant Staphylococcus aureus CCARM 3089 strain assessed as fractional inhibitory concentration in presence of ciprofloxacin by checkerboard assay; format: functional
Pseudomonas aeruginosa [35] = assay: Synergistic antibacterial activity against multidrug-resistant Pseudomonas aeruginosa CCARM 2095 strain assessed as chloramphenicol fractional inhibitory concentration by checkerboard assay; format: functional
Pseudomonas aeruginosa [36] = assay: Synergistic antibacterial activity against multidrug-resistant Pseudomonas aeruginosa CCARM 2095 strain assessed as oxacillin fractional inhibitory concentration in presence of oxacillin by checkerboard assay; format: functional

N=C(N)NCCNc1nc(NCCNC(=N)N)nc(N2CC(Cc3ccccc3)N(c3nc(NCCNC(=N)N)nc(NCCNC(=N)N)n3)CC2Cc2ccccc2)n1 (stereo not given)
MIC (Pseudomonas aeruginosa [1]): 4.8 µM (≈ 3.96 µg/mL) | Flu intensity (Lipopolysaccharide (LPS) [2]): 40.6% | MIC (Staphylococcus aureus [3]): 9.6 µM | MIC [4]: 4.8 µM (≈ 3.96 µg/mL) | MIC (Staphylococcus aureus [5]): 9.6 µM | Activity (Lipopolysaccharide (LPS) [6]): > 50% | Activity (Cell membrane [7]): inactive | MIC (Escherichia coli [8]): 9.7 µM | Flu intensity (Cell membrane [9]): 2.55% | MIC (Staphylococcus aureus [10]): 8 µg/mL | inhibition at 5 µg/mL (RAW264.7 [11]): 68.1% | inhibition at 20 µg/mL (RAW264.7 [12]): 99.8% | MIC (Pseudomonas aeruginosa [13]): 19.4 µM (≈ 16 µg/mL) | Activity (RAW264.7 [14]): Active | MIC (Pseudomonas aeruginosa [15]): 19.4 µM (≈ 16 µg/mL) | Activity (Escherichia coli [16]): Active | MIC (Escherichia coli [17]): 17.7 µM (≈ 14.6 µg/mL) | MIC (Staphylococcus aureus [18]): 9.6 µM | MIC (Enterococcus faecium): 38.7 µM (≈ 31.9 µg/mL) | Activity (Escherichia coli [19]): Active

NCCN(CCN)c1nc(NCc2ccccc2)nc(N2CC(Cc3ccccc3)N(c3nc(NCc4ccccc4)nc(N(CCN)CCN)n3)CC2Cc2ccccc2)n1 (stereo not given)
MIC (Pseudomonas aeruginosa [1]): 5.4 µM (≈ 4.52 µg/mL) | FIC (Staphylococcus aureus [20]): 0.125 | MIC (Pseudomonas aeruginosa [21]): 256 µg/mL | Flu intensity (Lipopolysaccharide (LPS) [2]): 16.4% | MIC (Staphylococcus aureus [3]): 5.4 µM | MBEC50 (Pseudomonas aeruginosa [22]): 10.4 µM | MBEC90 (Pseudomonas aeruginosa [22]): 10.4 µM | fractional inhibitory concentration index (FICI) (Pseudomonas aeruginosa [23]): 0.375 | fractional inhibitory concentration index (FICI) (Staphylococcus aureus [24]): 0.5 | MIC [4]: 2.7 µM (≈ 2.26 µg/mL) | MIC (Staphylococcus aureus [5]): 10.8 µM | Activity (Lipopolysaccharide (LPS) [6]): 75% | Activity (Cell membrane [7]): inactive | fractional inhibitory concentration index (FICI) (Staphylococcus aureus [25]): 0.375 | MIC (Escherichia coli [8]): 5.4 µM | FIC (Pseudomonas aeruginosa [26]): 0.125 | FIC (Pseudomonas aeruginosa [27]): 0.25 | Flu intensity (Cell membrane [9]): 10.5% | MIC (Staphylococcus aureus [10]): 4 µg/mL | MIC (Staphylococcus aureus [28]): 64 µg/mL | inhibition at 20 µg/mL (RAW264.7 [12]): 95.6% | MIC (Staphylococcus aureus [29]): 1 µg/mL | MBEC50 (Pseudomonas aeruginosa [30]): 10.4 µM | MBEC90 (Pseudomonas aeruginosa [30]): 10.4 µM | MBIC (Pseudomonas aeruginosa [30]): 5.2 µM | MBIC50 (Pseudomonas aeruginosa [30]): 1.3 µM | MIC (Pseudomonas aeruginosa [13]): 10.7 µM (≈ 8.96 µg/mL) | MIC (Pseudomonas aeruginosa [31]): 4 µg/mL | Activity (RAW264.7 [14]): Active | MIC (Staphylococcus aureus [32]): 1 µg/mL | MIC (Pseudomonas aeruginosa [33]): 16 µg/mL | FIC (Staphylococcus aureus [34]): 0.25 | MIC (Pseudomonas aeruginosa [15]): 21.4 µM (≈ 17.9 µg/mL) | Activity (Escherichia coli [16]): Active | FIC (Pseudomonas aeruginosa [35]): 0.25 | MIC (Escherichia coli [17]): 5.4 µM (≈ 4.52 µg/mL) | MIC (Staphylococcus aureus [18]): 5.4 µM | MIC (Enterococcus faecium): 21.4 µM (≈ 17.9 µg/mL) | FIC (Pseudomonas aeruginosa [36]): 0.25 | Activity (Escherichia coli [19]): Active
